Each molecule was assayed against T1, 5-lipoxygenase (Rattus norvegicus, UniProt P12527) (assay: Inhibition of 5-lipoxygenase activity (20,000x g supernatant from homogenized RBL-1 cells)). Conditions: linear regression of percentage inhibition versus log inhibitor concentration, read-out: IC50 (concentration of compound producing 50% enzyme inhibition).
T1 construct: 20,000x g supernatant from homogenized RBL-1 cells; endogenous in cells; host or cells: RBL-1 cells (20,000 x g supernatant of homogenate)
T1 sequence (P12527 1-673): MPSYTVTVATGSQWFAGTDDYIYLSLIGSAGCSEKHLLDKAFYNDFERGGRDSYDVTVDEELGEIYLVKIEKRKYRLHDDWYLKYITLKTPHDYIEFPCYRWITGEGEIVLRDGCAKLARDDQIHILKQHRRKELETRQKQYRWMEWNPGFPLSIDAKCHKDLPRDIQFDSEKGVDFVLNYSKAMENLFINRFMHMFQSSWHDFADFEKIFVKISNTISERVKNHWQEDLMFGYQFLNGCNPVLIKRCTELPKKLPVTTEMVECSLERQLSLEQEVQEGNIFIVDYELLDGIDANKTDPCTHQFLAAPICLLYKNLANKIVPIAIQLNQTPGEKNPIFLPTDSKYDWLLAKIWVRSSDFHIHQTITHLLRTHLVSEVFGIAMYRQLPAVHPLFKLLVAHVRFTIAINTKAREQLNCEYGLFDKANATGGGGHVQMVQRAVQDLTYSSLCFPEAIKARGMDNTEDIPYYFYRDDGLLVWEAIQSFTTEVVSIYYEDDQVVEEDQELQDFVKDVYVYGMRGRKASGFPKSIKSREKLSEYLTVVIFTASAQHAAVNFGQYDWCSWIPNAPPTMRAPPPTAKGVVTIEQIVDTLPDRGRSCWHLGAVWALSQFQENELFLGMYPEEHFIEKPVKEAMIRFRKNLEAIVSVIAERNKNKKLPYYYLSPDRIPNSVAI
Assay type: biochemical
Procedure: Inhibition of 5-lipoxygenase activity was determined using the 20,000x g supernatant from homogenized RBL-1 cells in a similar manner as that described by Dyer and coworkers (Dyer, R. D.; Haviv, F.; Hanel, A. M.; Bornemier, D. A.; Carter, G. W. Fed. Proc., Fed. Am. Soc. Exp. Biol., 43:1462A, (1984).) IC50 values (concentration of compound producing 50% enzyme inhibition) were calculated by linear regression analysis of percentage inhibition versus log inhibitor concentration plots.

Q: How did the IC50 turn out when `CC(C)Cc1ccc(Cc2nc(O)c(-c3ccccc3)s2)cc1` [Example 3, 2-[(4-isobutylphenyl)methyl]-5-phenyl-4-hydroxythiazole] was run?
A: Its IC50 is 1100 nM.

Q: How did the IC50 turn out when `CC(C)Cc1ccc(C(C)c2nc(O)c(-c3ccccc3)s2)cc1` (centres unmarked) [Example 2, 2-[1-(4-isobutylphenyl)ethyl]-5-phenyl-4-hydroxy-thiazole] was run?
A: Its IC50 is 710 nM.

Q: Which IC50 does the source give for `COc1ccc2cc(C(C)c3sc(-c4ccccc4)nc3O)ccc2c1` (centres unmarked) [Example 5, 5-[1-(6-methoxy-2-naphthyl)ethyl]-2-phenyl-4-hydroxythiazole] here?
A: The IC50 was 900 nM.

Q: For `CCC(c1ccc(CC(C)C)cc1)c1nc(O)c(-c2ccccc2)s1` (centres unmarked) [Example 4, 2-[1-(4-isobutylphenyl)propyl]-5-phenyl-4-hydroxythiazole], which IC50 is on record?
A: Its IC50 is 60 nM.

Q: `COc1ccc2cc(C(C)c3nc(O)c(-c4ccccc4)s3)ccc2c1` (centres unmarked) [Example 1, 2-[1-(6-methoxy-2-naphthyl)ethyl]-5-phenyl-4-hydroxythiazole] was tested. Which IC50 did it give?
A: Its IC50 is 420 nM.

Reference: patent publication US5032588A, “Thiazole lipoxygenase-inhibiting compounds derived from non-steroidal antiinflammatory carboxylic acids” (Abbott Laboratories, priority 1989, dated 1991)
